This is an account of results in patent US10738080B2, “Inhibitors of beta integrin-G protein alpha subunit binding interactions” (priority 2010, dated 2020).

No end group written: not given here. *: point of attachment. Myristoyl = CCCCCCCCCCCCCC(=O)*

One assay addresses T1, Gα13 binding to β3 (Homo sapiens, UniProt P05106+Q14344).
T1 construct: Proteins from platelet lysates were immunoprecipitated with control IgG or antibody to Gα13; The integrin αIIbβ3 was co-immunoprecipitated by anti-Gα13 antibody, but not control IgG, from platelet lysates; endogenous in cells; host or cells: washed human platelets (lysates)
T1 sequence (Q14344 1-377): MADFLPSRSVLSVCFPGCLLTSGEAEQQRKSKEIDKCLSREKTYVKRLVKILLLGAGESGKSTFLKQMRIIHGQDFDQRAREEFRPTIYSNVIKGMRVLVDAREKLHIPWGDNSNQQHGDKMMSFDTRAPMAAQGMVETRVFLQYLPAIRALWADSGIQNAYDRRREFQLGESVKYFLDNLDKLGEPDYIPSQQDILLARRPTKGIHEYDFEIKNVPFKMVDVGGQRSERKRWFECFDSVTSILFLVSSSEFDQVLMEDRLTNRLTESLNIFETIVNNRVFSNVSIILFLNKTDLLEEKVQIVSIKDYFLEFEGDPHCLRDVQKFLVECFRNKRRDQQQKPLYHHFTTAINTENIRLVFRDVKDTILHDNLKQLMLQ
T1 sequence (P05106 27-788): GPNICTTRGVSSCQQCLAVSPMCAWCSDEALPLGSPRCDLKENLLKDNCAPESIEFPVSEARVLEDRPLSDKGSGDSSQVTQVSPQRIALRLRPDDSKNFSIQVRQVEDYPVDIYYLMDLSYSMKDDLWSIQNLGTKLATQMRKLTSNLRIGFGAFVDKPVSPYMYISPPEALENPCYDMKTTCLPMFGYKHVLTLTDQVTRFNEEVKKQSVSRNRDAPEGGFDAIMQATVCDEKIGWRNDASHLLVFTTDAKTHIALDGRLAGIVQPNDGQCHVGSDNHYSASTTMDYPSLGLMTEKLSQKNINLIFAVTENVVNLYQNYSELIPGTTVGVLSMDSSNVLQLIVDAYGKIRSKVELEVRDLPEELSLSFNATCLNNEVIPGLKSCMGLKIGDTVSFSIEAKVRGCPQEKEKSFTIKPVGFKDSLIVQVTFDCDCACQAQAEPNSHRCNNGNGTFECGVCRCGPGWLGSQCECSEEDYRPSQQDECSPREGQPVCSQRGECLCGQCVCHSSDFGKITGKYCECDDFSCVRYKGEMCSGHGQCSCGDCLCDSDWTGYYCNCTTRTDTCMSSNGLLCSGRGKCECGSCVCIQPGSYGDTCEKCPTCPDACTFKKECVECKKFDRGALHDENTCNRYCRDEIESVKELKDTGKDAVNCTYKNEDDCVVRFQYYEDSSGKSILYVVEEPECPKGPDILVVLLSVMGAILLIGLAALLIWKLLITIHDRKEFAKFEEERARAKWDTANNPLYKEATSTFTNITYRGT
The assay is described as follows: Co-immunoprecipitation of β3 with Gα13 from platelet lysates. The note with it: for co-immunoprecipitation between Gα13 and β3: platelets/platelet lysates, 500 μM peptide. As to the method: As previously described (S7), cell lysates were incubated with 2 μg/ml of D57 (antibody to integrin αIIbβ3), LJP3 (antibody against GPIb), or mouse IgG, and further incubated with protein G-conjugated Sepharose beads. Cell lysates were also incubated with rabbit anti-Gα13 IgG antibody (1.5 μg/ml) or an equal amount of rabbit IgG and further incubated with protein A-conjugated Sepharose beads. After 3-6 washes with lysis buffer, immunoprecipitates were analyzed by SDS-polyacrylamide gel electrophoresis and Western blots with antibodies against β3 (MAb15), GPIb (anti-IbαC (S8)) or Gα13. In some experiments, 1 μM GDP, 1 μM GTPγS or 30 μM AlF4^− were added to the reaction to assess the effect of Gα13 activation on integrin binding. In other experiments, 250 μM mSRI or scrambled control peptide was incubated with platelet lysates prior to immunoprecipitation. GST bead pull down analysis was previously described (S7). Purified Gα13 was incubated with glutathione beads-bound to GST, GST-β1CD or GST-β3 CD at 4° C. overnight. Bead-bound proteins were analyzed by immunoblotting. For GST-β3CD cDNA construction, integrin-β3 cytoplasmic domain (716-762) cDNA was generated by PCR and cloned into pGEX-4T2 vector using Bam HI and Xho I restriction sites. The forward primer is 5′-[…]-3′ (SEQ ID NO: 48); the reverse primer is 5′-[…]-3′ (SEQ ID NO: 49). For GST-I31CD cDNA construction, β1 cytoplasmic domain (752-798) cDNA was amplified by PCR and cloned into pGEX-4T1 vector using EcoRI and Xho I restriction sites. The primer sequences are: (1) forward: 5′-[…]-3′ (SEQ ID NO: 50); (2) reverse: […]-3′ (SEQ ID NO: 51). GST, GST-β1CD and GST-β3CD were purified from BL21 (DE3) E. coli using glutathione-conjugated beads.
Cell lysates were incubated with rabbit anti-Gα13 IgG (1.5 μg/ml), anti-integrin β3 rabbit serum (5 μl/ml) or an equal amount of rabbit IgG or pre-immune serum at 4° C. overnight, and subsequently with protein A-conjugated Sepharose beads for 1 hour. For the integrin β3 clustering experiment, human platelets (3×10^8) were stimulated with 0.025 U/ml α-thrombin for 2 minutes at room temperature (to avoid platelet aggregation) with or without 2 mM RGDS, then incubated with 5 μl anti-integrin β3 8053 rabbit serum at room temperature for 1 hour, and 5 μg goat anti-rabbit secondary antibody for another 1 hour. Platelets were then solubilized in modified RIPA Buffer. For the un-clustering control and pre-immune serum control, cells were solubilized in modified RIPA Buffer first, than incubated with 5 μl 8053 serum or pre-immune serum. After 3-6 washes with lysis buffer, immunoprecipitates were analyzed by SDS-polyacrylamide gel electrophoresis and Western blots using antibodies against β3, talin, or Gα13. In some experiments, 500 μM control or inhibitor peptides, mP5, mP7 and mP13 were incubated with platelet lysates prior to immunoprecipitation, or 2 mM RGDS was added into washed human platelets before stimulation by 0.025 U/ml α-thrombin. GST bead pull down analysis was previously described^8. Purified Gα13 or MBP-talin head were incubated with glutathione beads-bound to GST or GST-β3CD at 4° C. overnight. Bead-bound proteins were analyzed by immunoblotting.

In the next assay the test system is RhoA. The assay is described as follows: RhoA activity assay (GST-RBD pull down) in platelets. It counts as cell-based, human. The note with it: human platelets adherent to fibrinogen.

Method for RhoA: Platelets in modified Tyrode's buffer or adherent on immobilized fibrinogen were lysed quickly in 0.8 ml lysis buffer (50 mM Tris, pH 7.4, 10 mM MgCl2, 500 mM NaCl, 1% Triton X-100, 0.1% SDS, 0.5% deoxycholate, 10 μg/ml each of aprotinin and leupeptin, 1 mM phenylmethylsulfonyl fluoride, and 200 μM sodium vanadate). Lysates were cleared by centrifugation at 18,000 g for 2 minutes at 4° C., and the supernatant was incubated for 1 hour with 30 μg purified GST-Rhotekin RhoA-binding domain fusion protein (GST-RBD) bound to glutathione-Sepharose beads (S10). Samples were washed three times using washing buffer (50 mM Tris, pH 7.4, 10 mM MgCl2, 150 mM NaCl, 1% Triton X-100) and then immunoblotted with an anti-RhoA monoclonal antibody. Cell lysates were also immunoblotted with anti-RhoA as loading control.

As to Myristoyl-LLARRPTKGIHEY [mSRI], the “Gα13 binding to β3 (co-immunoprecipitation of β3 with Gα13)” value at Gα13 binding to β3 (platelet lysates, 250 μM peptide) is “inhibited”. Moreover, the “RhoA activation (RhoA activity)” value with RhoA is “accelerated”.
As for Myristoyl-KFEEERA [mP7], the “co-immunoprecipitation between Gα13 and β3” value at Gα13 binding to β3 was “inhibited”. The “c-Src-dependent transient RhoA inhibition” value in the assay with RhoA was “inhibited”.
Take Myr-EEERA [mP5]: the “co-immunoprecipitation between Gα13 and β3” value at Gα13 binding to β3 was “inhibited”. In the assay on RhoA, the “RhoA activation (RhoA activity)” value is “increased” and the “c-Src-dependent transient RhoA inhibition” value was “inhibited”.
In the case of Myristoyl-KFEEERARAKWDT [mP13], at Gα13 binding to β3, the “co-immunoprecipitation between Gα13 and β3” value was “inhibited”. Further, the “c-Src-dependent transient RhoA inhibition” value in the assay on RhoA is given as “inhibited”.
